Experimental data taken from patent publication US10618918B2, “Substituted boronic acids as antimicrobials” (priority 2015, dated 2020).

Tests used:
[1] = system: KP1004 KPC-2; assay: Biapenem potentiation (MPC@1), strain KP1004 KPC-2; type: cell-based; settings: for BPM MPC1 KP1004 KPC-2: minimum BLI concentration inhibiting growth with biapenem 1 μg/mL, tested up to 40 μg/mL
Description: (§1) Biapenem was present in the test medium at 1 μg/mL. […] Table 3 summarizes the BLI potency of biapenem potentiation (MPC@1) for two strains overexpressing class A (KPC) and class D (OXA-48) carbapenemases. Biapenem MIC for each strain is also shown.

[2] = system: KP1086 OXA-48; assay: Biapenem potentiation (MPC@1), strain KP1086 OXA-48; type: cell-based; settings: for BPM MPC1 OXA-48 KP1086: minimum BLI concentration inhibiting growth with biapenem 1 μg/mL, tested up to 40 μg/mL
Description: as §1

[3] = system: PAM1032/KPC-2; assay: Biapenem potentiation MPC64 in PAM1032/KPC-2 (efflux proficient, overexpresses MexAB-OprM); type: cell-based, Pseudomonas aeruginosa; settings: for PAM1032/KPC-2 Biapenem MPC64: BLI concentration decreasing biapenem MIC 64-fold, from 32 μg/ml to 0.5 μg/ml, efflux proficient strain
Description: (§2) Efflux of BLIs from Pseudomonas aeruginosa by the MexAB-OprM efflux pump was also evaluated. The plasmid expressing the gene encoding KPC-2 was introduced into two strains of P. aeruginosa, PAM1032 and PAM 1154 that overexpressed or lacked MexAB-OprM, respectively. […] Potency of BLIs to potentiate biapenem in these strains was determined.

[4] = system: PAM1154/KPC-2; assay: Biapenem potentiation MPC64 in PAM1154/KPC-2 (efflux deficient, lacks MexAB-OprM); type: cell-based, Pseudomonas aeruginosa; settings: for PAM1154/KPC-2 Biapenem MPC64: BLI concentration decreasing biapenem MIC 64-fold, from 32 μg/ml to 0.5 μg/ml, efflux deficient strain
Description: as §2

[5] = target: purified class A, C and D enzymes (β-lactamases) (Enterobacter cloacae, UniProt P05364); assay: biochemical; type: biochemical; settings: purified P99; nitrocefin (NCF) as reporter substrate
Chain of purified class A, C and D enzymes (β-lactamases) (Enterobacter cloacae, UniProt P05364) (P05364 21-381): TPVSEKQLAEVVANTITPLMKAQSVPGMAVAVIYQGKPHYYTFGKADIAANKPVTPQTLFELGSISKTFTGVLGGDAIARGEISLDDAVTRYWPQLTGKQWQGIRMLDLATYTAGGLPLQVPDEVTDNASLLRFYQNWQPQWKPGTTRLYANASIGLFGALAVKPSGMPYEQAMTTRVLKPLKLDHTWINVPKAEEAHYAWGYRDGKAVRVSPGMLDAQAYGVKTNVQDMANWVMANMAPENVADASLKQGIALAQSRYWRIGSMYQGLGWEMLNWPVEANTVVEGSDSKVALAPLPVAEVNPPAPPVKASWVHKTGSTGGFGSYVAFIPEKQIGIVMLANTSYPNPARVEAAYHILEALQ

[6] = target: purified class A, C and D enzymes (β-lactamases) (Escherichia coli, UniProt Q9L5C7); assay: biochemical; type: biochemical; settings: purified CTX-M-14; nitrocefin (NCF) as reporter substrate
Chain of purified class A, C and D enzymes (β-lactamases) (Escherichia coli, UniProt Q9L5C7) (Q9L5C7 entry or part of it): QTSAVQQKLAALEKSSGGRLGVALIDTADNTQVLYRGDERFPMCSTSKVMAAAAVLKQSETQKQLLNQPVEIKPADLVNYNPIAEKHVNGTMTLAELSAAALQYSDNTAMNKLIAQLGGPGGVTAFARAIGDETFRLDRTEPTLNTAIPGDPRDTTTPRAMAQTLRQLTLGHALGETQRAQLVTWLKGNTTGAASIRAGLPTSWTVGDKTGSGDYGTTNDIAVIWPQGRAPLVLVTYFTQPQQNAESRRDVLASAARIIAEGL

[7] = target: purified class A, C and D enzymes (β-lactamases) (Klebsiella pneumoniae, UniProt Q6XEC0); assay: biochemical; type: biochemical; settings: purified OXA-48; nitrocefin (NCF) as reporter substrate
[8] = target: purified class A, C and D enzymes (β-lactamases) (Klebsiella pneumoniae, UniProt Q9F663); assay: biochemical; type: biochemical; settings: purified KPC-2; nitrocefin (NCF) as reporter substrate
[9] = target: T1, purified class A, C and D enzymes (β-lactamases) (UniProt P0AD64, L31Q/G234S/E235K, species not given); assay: biochemical; type: biochemical; settings: purified SHV-12; nitrocefin (NCF) as reporter substrate; read-out: Ki (SHV-12, NCF)
T1 construct: Ki (SHV-12, NCF), uM; other: purified SHV-12; nitrocefin (NCF) as reporter substrate
T1 sequence (P0AD64 1-286 L31Q/G234S/E235K): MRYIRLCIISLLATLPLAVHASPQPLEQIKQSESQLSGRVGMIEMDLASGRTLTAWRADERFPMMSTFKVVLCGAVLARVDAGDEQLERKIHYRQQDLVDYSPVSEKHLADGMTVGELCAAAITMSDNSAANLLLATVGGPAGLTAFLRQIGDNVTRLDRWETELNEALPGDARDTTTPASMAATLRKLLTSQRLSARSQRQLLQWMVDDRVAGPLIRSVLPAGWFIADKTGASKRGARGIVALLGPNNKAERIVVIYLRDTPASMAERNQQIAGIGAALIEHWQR

[10] = system: ECL1002; assay: Aztreonam potentiation (MPC@4), strain ECL1002; settings: minimum BLI concentration inhibiting growth with aztreonam 4 μg/mL; tested up to 40 μg/mL
[11] = system: ec308 SHV-5; assay: Aztreonam potentiation (MPC@4), strain ec308 SHV-5; settings: minimum BLI concentration inhibiting growth with aztreonam 4 μg/mL; tested up to 40 μg/mL
[12] = system: ec302 TEM-10; assay: Aztreonam potentiation (MPC@4), strain ec302 TEM-10; settings: minimum BLI concentration inhibiting growth with aztreonam 4 μg/mL; tested up to 40 μg/mL
[13] = system: KP1004 KPC-2; assay: Aztreonam potentiation (MPC@4), strain KP1004 KPC-2; settings: minimum BLI concentration inhibiting growth with aztreonam 4 μg/mL; tested up to 40 μg/mL
[14] = system: EC1010 CMY-6; assay: Aztreonam potentiation (MPC@4), strain EC1010 CMY-6; settings: minimum BLI concentration inhibiting growth with aztreonam 4 μg/mL; tested up to 40 μg/mL
[15] = system: KP1010 SHV-12; assay: Aztreonam potentiation (MPC@4), strain KP1010 SHV-12; settings: minimum BLI concentration inhibiting growth with aztreonam 4 μg/mL; tested up to 40 μg/mL
[16] = system: KP1009 CTX-M-15; assay: Aztreonam potentiation (MPC@4), strain KP1009 CTX-M-15; settings: minimum BLI concentration inhibiting growth with aztreonam 4 μg/mL; tested up to 40 μg/mL
[17] = system: KP1005 CTX-M-14; assay: Tigemonam potentiation (MPC@4), strain KP1005 CTX-M-14; settings: minimum BLI concentration inhibiting growth with tigemonam 4 μg/mL; tested up to 40 μg/mL

| SMILES | BPM MPC1 KP1004 KPC-2 [1] | BPM MPC1 OXA-48 KP1086 [2] | Ki (P99, NCF), uM [5] | Ki (CTX-M-14, NCF), uM [6] | Ki (OXA-48, NCF), uM [7] | Ki (KPC-2, NCF), uM [8] | Ki [9] | PAM1032/KPC-2 Biapenem MPC64 [3] | PAM1154/KPC-2 Biapenem MPC64 [4] | AZT MPC4 ECL1002 [10] | AZT MPC4 SHV-5 ec308 [11] | AZT MPC4 TEM-10 ec302 [12] | AZT MPC4 KPC-2 KP1004 [13] | AZT MPC4 CMY-6 EC1010 [14] | AZT MPC4 SHV-12 KP1010 [15] | AZT MPC4 CTX-M-15 KP1009 [16] | TIG MPC4 CTX-M-14 KP1005 [17] | further results |
| --- | --- | --- | --- | --- | --- | --- | --- | --- | --- | --- | --- | --- | --- | --- | --- | --- | --- | --- |
| C[C@@H](O)[C@H]1C(=O)N2C(C(=O)[O-])=C(SC3Cn4cnc[n+]4C3)[C@H](C)[C@H]12 (some centres unmarked) [Biapenem, reference compound] |  |  |  |  |  |  |  |  |  |  |  |  |  |  |  |  |  | MIC ([1]; strain KP1004 KPC-2, biapenem alone): 32 µg/mL; MIC ([2]; strain KP1086 OXA-48, biapenem alone): 16 µg/mL; MIC ([3]; Pseudomonas aeruginosa, P. aeruginosa PAM1032 expressing KPC-2, biapenem alone): 32 µg/mL; MIC ([4]; Pseudomonas aeruginosa, P. aeruginosa PAM1154 expressing KPC-2, biapenem alone): 32 µg/mL |
| O=C(Cc1cccs1)NC1CB(O)Oc2c(C(=O)O)cccc21 (centres unmarked) [Compound 1, 2-HYDROXY-4-(2-(THIOPHEN-2-YL)ACETAMIDO)-3,4-DIHYDRO-2H-BENZO[E][1,2]OXABORININE-8-CARBOXYLIC ACID] | X (X = MPC@1 ≤ 5 μg/mL) | Y (Y = 5 μg/mL < MPC@1 ≤ 20 μg/mL) | X (X = Ki ≤ 0.1 μM) | X (X = Ki ≤ 0.1 μM) | X (X = Ki ≤ 0.1 μM) | X (X = Ki ≤ 0.1 μM) | < 0.1 µM | 40 | 2.5 | Y (Y = 5 μg/mL < MPC@4 ≤ 20 μg/mL) | X (X = MPC@4 ≤ 5 μg/mL) | X (X = MPC@4 ≤ 5 μg/mL) | X (X = MPC@4 ≤ 5 μg/mL) | X (X = MPC@4 ≤ 5 μg/mL) | X (X = MPC@4 ≤ 5 μg/mL) | X (X = MPC@4 ≤ 5 μg/mL) | X (X = MPC@4 ≤ 5 μg/mL) |  |
| Nc1nnc(C(=O)NC2CB(O)Oc3c(C(=O)O)cccc32)s1 (centres unmarked) [Compound 2, 4-(5-AMINO-1,3,4-THIADIAZOLE-2-CARBOXAMIDO)-2-HYDROXY-3,4-DIHYDRO-2H-BENZO[E][1,2]OXABORININE-8-CARBOXYLIC ACID] | X (X = MPC@1 ≤ 5 μg/mL) | X (X = MPC@1 ≤ 5 μg/mL) | X (X = Ki ≤ 0.1 μM) | X (X = Ki ≤ 0.1 μM) | X (X = Ki ≤ 0.1 μM) | X (X = Ki ≤ 0.1 μM) | < 0.1 µM | 20 | 1.25 | X (X = MPC@4 ≤ 5 μg/mL) | X (X = MPC@4 ≤ 5 μg/mL) | X (X = MPC@4 ≤ 5 μg/mL) | X (X = MPC@4 ≤ 5 μg/mL) | X (X = MPC@4 ≤ 5 μg/mL) | X (X = MPC@4 ≤ 5 μg/mL) | X (X = MPC@4 ≤ 5 μg/mL) | X (X = MPC@4 ≤ 5 μg/mL) |  |
